In patent publication US20230132823A1, “BI-FUNCTIONAL COMPOUNDS AND METHODS FOR TARGETED UBIQUITINATION OF ANDROGEN RECEPTOR” (MONTELINO THERAPEUTICS, INC., priority 2020, published 2023):

Columns and labels:
22Rv1 = 22Rv1 cell proliferation assay (Experimental Example 3); type: cell-based, human; conditions: for 22Rv1 cell count, % of control: 6 days
Experimental: The human prostate cancer cell line, 22Rv1 has been reported to express a high level of AR-V7. […] Standard culture media was RPMI-1640 supplemented with 10% fetal bovine serum. The test compound initially was dissolved in DMSO at 50 mM. This stock solution was then diluted as needed for the indicated concentrations. […]
(§1) Cell Culture. Human CaP cell lines, LNCaP, 22Rv1, VCaP, PC3, and DU145 are obtained from the American Type Culture Collection (ATCC) and maintained in the standard culture media: RPMI-1640 supplemented with 10% fetal bovine serum (FBS). LNCaP, 22Rv1, and VCaP are androgen-responsive cell lines, while PC3 and DU145 are not. To establish SAT resistant CaP cell lines, LNCaP, 22Rv1, and VCaP are treated continuously with 10-50 μM abiraterone, apalutamide, darolutamide, or enzalutamide. After 3-6 months, stable cell lines are established and designated as LNCaP-Abi^R, LNCaP-Apa^R, LNCaP-Daro^R, LNCaP-Enz^R, VCaP-Abi^R, VCaP-Apa^R, VCaP-Daro^R, VCaP-Enz^R, 22Rv1-Abi^R, 22Rv1-Apa^R, 22Rv1-Daro^R and 22Rv1-Enz^R. Unless otherwise specified, the standard culture media for these SAT-resistant cell lines included 10 μM of their respective SAT. For the proteasome inhibitor study, the inhibitors MG132 and Epoxomicin are used. The E3 ligase inhibitors Heclin, Nutlin 3a, Thalidomide, and VH298 are used. Cell lines obtained from ATCC are confirmed by checking their morphology using optical microscopy, establishing baselines for cell proliferation, verifying species of origin using isoenzymology, and characterizing the cell's DNA fingerprint using short tandem repeat (STR) profiling. Mycoplasma contamination is also assessed using a PCR based detection system.

[1] = test system: 22Rv1 cells transfected with AR-V7 or AR-FL; assay: Proliferation of 22Rv1 cells transfected with AR-V7 and/or AR-FL; type: cell-based, human; conditions: 1 μM
From the text: Transient Transfections. One μg of a plasmid containing cDNA of AR-V7 or AR-FL is transfected into indicated the CaP cell lines on 6-well plates. Three μl of lipofectamine 3000 is used for each transfection.

[2] = molecular target: T1, glucocorticoid receptor (GR) (Homo sapiens, UniProt P04150); assay: Immunoblot of GR in 22Rv1 cells; type: cell-based; conditions: 22Rv1, 24 hours, up to 10 μM
T1 construct: endogenous in cells; host or cells: 22Rv1
T1 sequence (P04150 1-777): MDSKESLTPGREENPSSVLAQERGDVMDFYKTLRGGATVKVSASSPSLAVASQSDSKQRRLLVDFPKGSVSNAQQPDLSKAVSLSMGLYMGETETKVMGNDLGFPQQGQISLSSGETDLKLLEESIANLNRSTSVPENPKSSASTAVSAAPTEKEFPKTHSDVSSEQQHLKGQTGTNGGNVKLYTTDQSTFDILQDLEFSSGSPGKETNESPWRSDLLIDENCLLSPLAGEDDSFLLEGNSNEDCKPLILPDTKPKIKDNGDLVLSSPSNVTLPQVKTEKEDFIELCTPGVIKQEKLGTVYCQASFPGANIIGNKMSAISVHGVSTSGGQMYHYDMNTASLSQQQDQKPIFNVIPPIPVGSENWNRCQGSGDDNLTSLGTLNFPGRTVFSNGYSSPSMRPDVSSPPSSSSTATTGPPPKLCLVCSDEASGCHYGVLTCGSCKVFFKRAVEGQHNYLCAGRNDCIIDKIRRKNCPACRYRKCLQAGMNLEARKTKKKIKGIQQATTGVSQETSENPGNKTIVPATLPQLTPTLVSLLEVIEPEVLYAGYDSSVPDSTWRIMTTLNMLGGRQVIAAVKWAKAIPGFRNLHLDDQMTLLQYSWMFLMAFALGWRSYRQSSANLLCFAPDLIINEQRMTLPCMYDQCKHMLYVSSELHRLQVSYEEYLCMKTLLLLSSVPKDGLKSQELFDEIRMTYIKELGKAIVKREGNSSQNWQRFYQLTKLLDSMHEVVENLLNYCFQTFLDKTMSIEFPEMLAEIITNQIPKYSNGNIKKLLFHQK
Experimental: as §1, with “Cell lines obtained from ATCC are confirmed by checking their morphology using optical microscopy, establishing baselines for cell proliferation, verifying species of origin using isoenzymology, and characterizing the cell's DNA fingerprint using short tandem repeat (STR) profiling.” left out
Immunoblot Analysis. […] Cell lysates are then centrifuged and protein in the supernatant is quantified. […] Following the incubation with appropriate secondary antibody, immunoblots are analyzed using SuperSignal West Femto Maximum Sensitivity Substrate (ThermoFisher).

22Rv1 cells = assay: Apoptosis assay (annexin-V, TUNEL) in 22Rv1; type: cell-based, human; conditions: 22Rv1, 1 μM
Experimental: Apoptosis Assay. An apoptosis assay is carried out using the Thermo Fisher ApoDETECT Annexin V-FITC kit following the protocol recommended by the vendor. […] Then, fixed cells are incubated with Annexin V-FITC in PBS solution for 30 minutes at room temperature. After washing three times with PBS, cells are treated with 300 nM DAPI in PBS for 5 minutes at room temperature. Finally, after washing three times with PBS, mounting solution is added and the cells are visualized using immunofluorescence microscopy. Next, a TUNEL assay is performed using Promega DeadEnd Fluorometric TUNEL system. After treatment with Test Compound and fixation as described above in the Annexin-V experiment, 100 μl of equilibration buffer is incubated for 10 min. Then, 50 μl of TdT reaction mix is added and incubated for 60 min at 37° C. in a humidified chamber. Finally, stop solution is added and samples are mounted on slides using mounting medium. To assess non-specific cytotoxicity, an LDH assay kit is used.

DU145 = DU145 cell proliferation; type: cell-based, human; conditions: AR-negative cell line; 1 μM
Experimental: The human prostate cancer cell line, 22Rv1 has been reported to express a high level of AR-V7. Thus, 22Rv1 was seeded at 50,000 cells/well on a 24-well plate in quadruplicates and treated with test compound in concentrations ranging up to 20 μM for four days. Standard culture media was RPMI-1640 supplemented with 10% fetal bovine serum. The test compound initially was dissolved in DMSO at 50 mM. This stock solution was then diluted as needed for the indicated concentrations. At the end of the four-day period, cells were harvested using 1% trypsin and counted using an automated cell counter.
Cell Culture. Human CaP cell lines, LNCaP, 22Rv1, VCaP, PC3, and DU145 are obtained from the American Type Culture Collection (ATCC) and maintained in the standard culture media: RPMI-1640 supplemented with 10% fetal bovine serum (FBS). LNCaP, 22Rv1, and VCaP are androgen-responsive cell lines, while PC3 and DU145 are not. To establish SAT resistant CaP cell lines, LNCaP, 22Rv1, and VCaP are treated continuously with 10-50 μM abiraterone, apalutamide, darolutamide, or enzalutamide. […] Mycoplasma contamination is also assessed using a PCR based detection system.

Cc1ncsc1-c1ccc([C@H](C)NC(=O)[C@@H]2C[C@@H](O)CN2C(=O)[C@@H](NC(=O)CCCCNC(=O)COc2c(-c3csc(N4CCOCC4)n3)ccc(F)c2F)C(C)(C)C)cc1 [Example 16, (2S,4R)-1-((S)-2-(5-(2-(2,3-difluoro-6-(2-morpholinothiazol-4-yl)phenoxy)acetamido)pentanamido)-3,3-dimethylbutanoyl)-4-hydroxy-N-((S)-1-(4-(4-methylthiazol-5-yl)phenyl)ethyl)pyrrolidine-2-carboxamide]
22Rv1 cell count, % of control (22Rv1; 0.01 μM): approximately 90 % of control
22Rv1 cell count, % of control (22Rv1; 0.1 μM): ~70 % of control
22Rv1 cell count, % of the control (side to side cell line comparison) (22Rv1; 1 μM): approximately 40 % of the control
22Rv1 cell count, % of control (22Rv1; 1 μM): ~65 % of control
inhibitory effect after transfection of both AR-V7 and AR-FL into 22Rv1 cells ([1]; both transfected): completely abrogated
inhibitory effect after transfecting AR-V7 or AR-FL into 22Rv1 cells ([1]; single transfection): partial resistance
effect on expression level of glucocorticoid receptor (GR) [2]: no visible effect
apoptosis, TUNEL assay (22Rv1 cells): confirmed
apoptosis, annexin-V assay (22Rv1 cells; 0 to 48 hours, starts approximately three hours after treatment, increases through 48 hours): increase in annexin-V staining
effect on DU145 cells (DU145): not affected
